From patent US20130209543A1, “ENHANCED TREATMENT REGIMENS USING MTOR INHIBITORS” (Intellikine LLC, priority 2011, published 2013)

Test: Additional study: grade 3 or greater treatment-emergent adverse events (Table 10)
Format: in vivo, human

CC(C)n1nc(-c2ccc3oc(N)nc3c2)c2c(N)ncnc21 [compound A]
Anaemia, grade 3 or greater TEAE (Total (N = 91)): 6 (7%)
Aspartate aminotransferase increase, grade 3 or greater TEAE (Total (N = 91)): 2 (2%)
Asthenia, grade 3 or greater TEAE (Total (N = 91)): 4 (4%)
Blood creatinine increase, grade 3 or greater TEAE (Total (N = 91)): 2 (2%)
Deep vein thrombosis, grade 3 or greater TEAE (Total (N = 91)): 2 (2%)
Diarrhoea, grade 3 or greater TEAE (Total (N = 91)): 3 (3%)
Disease progression, grade 3 or greater TEAE (Total (N = 91)): 2 (2%)
Fatigue, grade 3 or greater TEAE (Total (N = 91)): 3 (3%)
Gamma-glutamyltransferase increase, grade 3 or greater TEAE (Total (N = 91)): 3 (3%)
Hyperglycaemia, grade 3 or greater TEAE (Total (N = 91)): 9 (10%)
Hypokalaemia, grade 3 or greater TEAE (Total (N = 91)): 3 (3%)
Hyponatraemia, grade 3 or greater TEAE (Total (N = 91)): 2 (2%)
Hypophsphataemia, grade 3 or greater TEAE (Total (N = 91)): 5 (5%)
Lymphopenia, grade 3 or greater TEAE (Total (N = 91)): 6 (7%)
Mucosal Inflammation, grade 3 or greater TEAE (Total (N = 91)): 7 (8%)
Muscular weakness, grade 3 or greater TEAE (Total (N = 91)): 2 (2%)
Nausea, grade 3 or greater TEAE (Total (N = 91)): 2 (2%)
Neutropenia, grade 3 or greater TEAE (Total (N = 91)): 2 (2%)
Pruritus, grade 3 or greater TEAE (Total (N = 91)): 3 (3%)
Rash, grade 3 or greater TEAE (Total (N = 91)): 9 (10%)
Thrombocytopenia, grade 3 or greater TEAE (Total (N = 91)): 2 (2%)
Vomiting, grade 3 or greater TEAE (Total (N = 91)): 3 (3%)
Anaemia, grade 3 or greater TEAE (Total QD Dosing (N = 29)): 1 (3%)
Aspartate aminotransferase increase, grade 3 or greater TEAE (Total QD Dosing (N = 29)): 0 (0%)
Asthenia, grade 3 or greater TEAE (Total QD Dosing (N = 29)): 1 (3%)
Blood creatinine increase, grade 3 or greater TEAE (Total QD Dosing (N = 29)): 0 (0%)
Deep vein thrombosis, grade 3 or greater TEAE (Total QD Dosing (N = 29)): 0 (0%)
Diarrhoea, grade 3 or greater TEAE (Total QD Dosing (N = 29)): 1 (3%)
Disease progression, grade 3 or greater TEAE (Total QD Dosing (N = 29)): 0 (0%)
Fatigue, grade 3 or greater TEAE (Total QD Dosing (N = 29)): 0 (0%)
Gamma-glutamyltransferase increase, grade 3 or greater TEAE (Total QD Dosing (N = 29)): 0 (0%)
Hyperglycaemia, grade 3 or greater TEAE (Total QD Dosing (N = 29)): 4 (14%)
Hypokalaemia, grade 3 or greater TEAE (Total QD Dosing (N = 29)): 2 (7%)
Hyponatraemia, grade 3 or greater TEAE (Total QD Dosing (N = 29)): 2 (7%)
Hypophsphataemia, grade 3 or greater TEAE (Total QD Dosing (N = 29)): 0 (0%)
Lymphopenia, grade 3 or greater TEAE (Total QD Dosing (N = 29)): 2 (7%)
Mucosal Inflammation, grade 3 or greater TEAE (Total QD Dosing (N = 29)): 0 (0%)
Muscular weakness, grade 3 or greater TEAE (Total QD Dosing (N = 29)): 0 (0%)
Nausea, grade 3 or greater TEAE (Total QD Dosing (N = 29)): 0 (0%)
Neutropenia, grade 3 or greater TEAE (Total QD Dosing (N = 29)): 0 (0%)
Pruritus, grade 3 or greater TEAE (Total QD Dosing (N = 29)): 2 (7%)
Rash, grade 3 or greater TEAE (Total QD Dosing (N = 29)): 7 (24%)
Thrombocytopenia, grade 3 or greater TEAE (Total QD Dosing (N = 29)): 2 (7%)
Vomiting, grade 3 or greater TEAE (Total QD Dosing (N = 29)): 0 (0%)
Anaemia, grade 3 or greater TEAE (Total QDx3d QW (N = 25)): 2 (8%)
Aspartate aminotransferase increase, grade 3 or greater TEAE (Total QDx3d QW (N = 25)): 0 (0%)
Asthenia, grade 3 or greater TEAE (Total QDx3d QW (N = 25)): 1 (4%)
Blood creatinine increase, grade 3 or greater TEAE (Total QDx3d QW (N = 25)): 2 (8%)
Deep vein thrombosis, grade 3 or greater TEAE (Total QDx3d QW (N = 25)): 1 (4%)
Diarrhoea, grade 3 or greater TEAE (Total QDx3d QW (N = 25)): 1 (4%)
Disease progression, grade 3 or greater TEAE (Total QDx3d QW (N = 25)): 0 (0%)
Fatigue, grade 3 or greater TEAE (Total QDx3d QW (N = 25)): 0 (0%)
Gamma-glutamyltransferase increase, grade 3 or greater TEAE (Total QDx3d QW (N = 25)): 1 (4%)
Hyperglycaemia, grade 3 or greater TEAE (Total QDx3d QW (N = 25)): 4 (16%)
Hypokalaemia, grade 3 or greater TEAE (Total QDx3d QW (N = 25)): 0 (0%)
Hyponatraemia, grade 3 or greater TEAE (Total QDx3d QW (N = 25)): 0 (0%)
Hypophsphataemia, grade 3 or greater TEAE (Total QDx3d QW (N = 25)): 3 (12%)
Lymphopenia, grade 3 or greater TEAE (Total QDx3d QW (N = 25)): 2 (8%)
Mucosal Inflammation, grade 3 or greater TEAE (Total QDx3d QW (N = 25)): 4 (16%)
Muscular weakness, grade 3 or greater TEAE (Total QDx3d QW (N = 25)): 1 (4%)
Nausea, grade 3 or greater TEAE (Total QDx3d QW (N = 25)): 1 (4%)
Neutropenia, grade 3 or greater TEAE (Total QDx3d QW (N = 25)): 0 (0%)
Pruritus, grade 3 or greater TEAE (Total QDx3d QW (N = 25)): 1 (4%)
Rash, grade 3 or greater TEAE (Total QDx3d QW (N = 25)): 1 (4%)
Thrombocytopenia, grade 3 or greater TEAE (Total QDx3d QW (N = 25)): 0 (0%)
Vomiting, grade 3 or greater TEAE (Total QDx3d QW (N = 25)): 1 (4%)
Anaemia, grade 3 or greater TEAE (Total QDx5d QW (N = 15)): 1 (7%)
Aspartate aminotransferase increase, grade 3 or greater TEAE (Total QDx5d QW (N = 15)): 1 (7%)
Asthenia, grade 3 or greater TEAE (Total QDx5d QW (N = 15)): 1 (7%)
Blood creatinine increase, grade 3 or greater TEAE (Total QDx5d QW (N = 15)): 0 (0%)
Deep vein thrombosis, grade 3 or greater TEAE (Total QDx5d QW (N = 15)): 0 (0%)
Diarrhoea, grade 3 or greater TEAE (Total QDx5d QW (N = 15)): 0 (0%)
Disease progression, grade 3 or greater TEAE (Total QDx5d QW (N = 15)): 0 (0%)
Fatigue, grade 3 or greater TEAE (Total QDx5d QW (N = 15)): 2 (13%)
Gamma-glutamyltransferase increase, grade 3 or greater TEAE (Total QDx5d QW (N = 15)): 1 (7%)
Hyperglycaemia, grade 3 or greater TEAE (Total QDx5d QW (N = 15)): 1 (7%)
Hypokalaemia, grade 3 or greater TEAE (Total QDx5d QW (N = 15)): 0 (0%)
Hyponatraemia, grade 3 or greater TEAE (Total QDx5d QW (N = 15)): 0 (0%)
Hypophsphataemia, grade 3 or greater TEAE (Total QDx5d QW (N = 15)): 2 (13%)
Lymphopenia, grade 3 or greater TEAE (Total QDx5d QW (N = 15)): 1 (7%)
Mucosal Inflammation, grade 3 or greater TEAE (Total QDx5d QW (N = 15)): 3 (20%)
Muscular weakness, grade 3 or greater TEAE (Total QDx5d QW (N = 15)): 0 (0%)
Nausea, grade 3 or greater TEAE (Total QDx5d QW (N = 15)): 1 (7%)
Neutropenia, grade 3 or greater TEAE (Total QDx5d QW (N = 15)): 1 (7%)
Pruritus, grade 3 or greater TEAE (Total QDx5d QW (N = 15)): 0 (0%)
Rash, grade 3 or greater TEAE (Total QDx5d QW (N = 15)): 1 (7%)
Thrombocytopenia, grade 3 or greater TEAE (Total QDx5d QW (N = 15)): 0 (0%)
Vomiting, grade 3 or greater TEAE (Total QDx5d QW (N = 15)): 1 (7%)
Anaemia, grade 3 or greater TEAE (Total QW Dosing (N = 22)): 2 (9%)
Aspartate aminotransferase increase, grade 3 or greater TEAE (Total QW Dosing (N = 22)): 1 (5%)
Asthenia, grade 3 or greater TEAE (Total QW Dosing (N = 22)): 1 (5%)
Blood creatinine increase, grade 3 or greater TEAE (Total QW Dosing (N = 22)): 0 (0%)
Deep vein thrombosis, grade 3 or greater TEAE (Total QW Dosing (N = 22)): 1 (5%)
Diarrhoea, grade 3 or greater TEAE (Total QW Dosing (N = 22)): 1 (5%)
Disease progression, grade 3 or greater TEAE (Total QW Dosing (N = 22)): 2 (9%)
Fatigue, grade 3 or greater TEAE (Total QW Dosing (N = 22)): 1 (5%)
Gamma-glutamyltransferase increase, grade 3 or greater TEAE (Total QW Dosing (N = 22)): 1 (5%)
Hyperglycaemia, grade 3 or greater TEAE (Total QW Dosing (N = 22)): 0 (0%)
Hypokalaemia, grade 3 or greater TEAE (Total QW Dosing (N = 22)): 1 (5%)
Hyponatraemia, grade 3 or greater TEAE (Total QW Dosing (N = 22)): 0 (0%)
Hypophsphataemia, grade 3 or greater TEAE (Total QW Dosing (N = 22)): 0 (0%)
Lymphopenia, grade 3 or greater TEAE (Total QW Dosing (N = 22)): 1 (5%)
Mucosal Inflammation, grade 3 or greater TEAE (Total QW Dosing (N = 22)): 0 (0%)
Muscular weakness, grade 3 or greater TEAE (Total QW Dosing (N = 22)): 1 (5%)
Nausea, grade 3 or greater TEAE (Total QW Dosing (N = 22)): 0 (0%)
Neutropenia, grade 3 or greater TEAE (Total QW Dosing (N = 22)): 1 (5%)
Pruritus, grade 3 or greater TEAE (Total QW Dosing (N = 22)): 0 (0%)
Rash, grade 3 or greater TEAE (Total QW Dosing (N = 22)): 0 (0%)
Thrombocytopenia, grade 3 or greater TEAE (Total QW Dosing (N = 22)): 0 (0%)
Vomiting, grade 3 or greater TEAE (Total QW Dosing (N = 22)): 1 (5%)
